Experimental data reported in paper PMC10590377, “Synthesis of novel coumarin-based thiosemicarbazones and their implications in diabetic management via in-vitro and in-silico approaches” (Scientific Reports, 2023).
Where “and” joins values, the source holds several entries; their conditions need not be identical. Equal entries are not always repeated. Entries after “also recorded” stand apart in the source; their conditions may differ.

Legend:
[1] = system: α-glucosidase; assay: In-vitro α-glucosidase inhibition assay (4-nitro phenyl α-D-glucopyranoside substrate); type: biochemical; details: for Percent inhibition (0.5 mM): test samples 0.5 mM; for IC50: triplicate, ± SEM
Experimental: The most recent investigations were carried out utilizing the techniques we previously discussed. The enzyme and substrate were dissolved in phosphate buffer (pH 6.8) which also served as the reaction buffer for the experiments. A 96-well plate was used for the following ingredients: enzyme 2 U/2 mL, test samples (0.5 mM), 20 µL/well, enzyme 20 µL/well, and 135 µL/well reaction buffer. The plate was incubated for 15 min at 37 °C. Changes in absorbance brought on by substrate breakdown were measured at 400 nm for 30 min after each well-received 25 µL of 4-nitro phenyl α-D-glucopyranoside.
The formula below was used to compute the percent inhibition of all drugs tested.1 the%Inhibition=100-O.Dtestcompound/O.Dcontrol×100
EZ-FIT (Perrella Scientific, Inc., USA) to calculate the IC50 for all antidiabetic agents under the study.

[2] = system: α-glucosidase; assay: Kinetic studies of α-glucosidase inhibition (Lineweaver–Burk, secondary replot, Dixon plots); type: biochemical; details: for type / mode of inhibition: Lineweaver–Burk plots; for Ki: secondary replot of Lineweaver–Burk plots, reconfirmed by Dixon plots
Text: In such types of inhibition, the Vmax of the enzyme remains constant, while the Km value increases (Fig. 3). Lineweaver–Burk plots were used to determine the type of inhibition of the given compounds, in which the reciprocal of the reaction rate was plotted vs. the reciprocal of substrate concentrations to investigate their effect on the Km and Vmax of the α-glucosidase (Fig. 3). To determine the Ki values for all compounds evaluated for kinetics study secondary replot of Lineweaver–Burk plots were applied by taking the slope of each line in Lineweaver–Burk plots vs. different concentrations of the tested compounds. Further Dixon plots were used for the reconfirmation of Ki values (Fig. 3).
Figure 3 The inhibitory mode of 3c, 3g and 3i against α-glucosidase enzyme (A) Line weaver-Burk plot of reciprocal of rate of reaction (velocities) vs reciprocal of substrate p-nitro phenyl-α-D-glucopyranoside in the absence of (filled black square), and in the presence of 7.00 (filled black circle), 3.50 (open circle) and 1.75 µM (open square) of 3c, 3g and 3i. (B) Secondary replot of Line weaver-Burk plot between the slopes of each line on Line weaver-Burk plot against different concentrations of 3c, 3g and 3i. (C) Dixon plot of reciprocal of rate of reaction (velocities) vs different concentrations of 3c, 3g and 3i.

Row | Structure (SMILES) | Percent inhibition (0.5 mM) [1] [%] | IC50 [1] | type / mode of inhibition [2] | Ki [2] [µM]
1 | O=c1oc2ccccc2c(Cl)c1/C=N/NC(=S)Nc1ccccc1 [Compound 3a, (E)-2-((4-chloro-2-oxo-2H-chromen-3-yl)methylene)-N-phenylhydrazine-1-carbothioamide] | 92.45 | 10 µM and 10.1 µM | – | –
2 | COc1cccc(NC(=S)N/N=C/c2c(Cl)c3ccccc3oc2=O)c1 [Compound 3b, (E)-2-((4-chloro-2-oxo-2H-chromen-3-yl)methylene)-N-(3-methoxyphenyl)hydrazine-1-carbothioamide] | 94.67 | 6.1 ± 0.11 µM | – | –
3 | O=c1oc2ccccc2c(Cl)c1/C=N/NC(=S)Nc1cc(Cl)c(Cl)cc1Cl [Compound 3c, (E)-2-((4-chloro-2-oxo-2H-chromen-3-yl)methylene)-N-(2,4,5-trichlorophenyl) hydrazine-1-carbothioamide] | 94.68 | 2.57 ± 0.03 µM | competitive inhibitor; also recorded: concentration-dependent inhibition | 1.62 ± 0.041
4 | O=c1oc2ccccc2c(Cl)c1/C=N/NC(=S)NCc1ccccc1 [Compound 3d, (E)-N-benzyl-2-((4-chloro-2-oxo-2H-chromen-3-yl)methylene) hydrazine-1-carbothioamide] | 91.20 | 12.6 ± 0.16 µM | – | –
5 | Cc1ccc(NC(=S)N/N=C/c2c(Cl)c3ccccc3oc2=O)cc1 [Compound 3e, (E)-2-((4-chloro-2-oxo-2H-chromen-3-yl)methylene)-N-(p-tolyl) hydrazine-1-carbothioamide] | 92.75 | 9.11 ± 0.2 µM | – | –
6 | O=c1oc2ccccc2c(Cl)c1/C=N/NC(=S)NC1CCCCC1 [Compound 3f, (E)-2-((4-chloro-2-oxo-2H-chromen-3-yl)methylene)-N-cyclohexylhydrazine-1-carbothioamide] | 91.70 | 11.2 ± 0.24 µM | – | –
7 | O=c1oc2ccccc2c(Cl)c1/C=N/NC(=S)NCCc1ccccc1 [Compound 3g, (E)-2-((4-chloro-2-oxo-2H-chromen-3-yl)methylene)-N-phenethylhydrazine-1-carbothioamide] | 95.15 | 2.33 ± 0.04 µM | competitive inhibitor | 1.33 ± 0.0027
8 | COc1ccc(NC(=S)N/N=C/c2c(Cl)c3ccccc3oc2=O)cc1 [Compound 3h, (E)-2-((4-chloro-2-oxo-2H-chromen-3-yl)methylene)-N-(4-methoxyphenyl) hydrazine-1-carbothioamide] | 94.63 | 3.4 ± 0.08 µM | – | –
9 | O=c1oc2ccccc2c(Cl)c1/C=N/NC(=S)Nc1ccc([N+](=O)[O-])cc1 [Compound 3i, (E)-2-((4-chloro-2-oxo-2H-chromen-3-yl)methylene)-N-(4-nitrophenyl) hydrazine-1-carbothioamide] | 95.30 | 2.13 ± 0.04 µM | competitive inhibitor | 1.51 ± 0.0086
10 | Cc1cccc(C)c1NC(=S)N/N=C/c1c(Cl)c2ccccc2oc1=O [Compound 3j, (E)-2-((4-chloro-2-oxo-2H-chromen-3-yl)methylene)-N-(2,6-dimethylphenyl) hydrazine-1-carbothioamide] | 91.29 | 22.1 ± 0.37 µM | – | –
11 | O=c1oc2ccccc2c(Cl)c1/C=N/NC(=S)Nc1cccc(Cl)c1Cl [Compound 3k, (E)-2-((4-chloro-2-oxo-2H-chromen-3-yl)methylene)-N-(2,3-dichlorophenyl) hydrazine-1-carbothioamide] | 92.54 | 4.22 ± 0.1 µM | – | –
12 | O=c1oc2ccccc2c(Cl)c1/C=N/NC(=S)Nc1ccccc1F [Compound 3l, (E)-2-((4-chloro-2-oxo-2H-chromen-3-yl)methylene)-N-(2-fluorophenyl) hydrazine-1-carbothioamide] | 92.08 | 8.84 ± 0.16 µM | – | –
13 | CNC(=S)N/N=C/c1c(Cl)c2ccccc2oc1=O [Compound 3m, (E)-2-((4-chloro-2-oxo-2H-chromen-3-yl)methylene)-N-methylhydrazine-1-carbothioamide] | 91.37 | 24.2 ± 0.31 µM | – | –
14 | C[C@H]1O[C@H](O[C@H]2[C@H](O)[C@@H](O)[C@@H](O[C@H]3[C@H](O)[C@@H](O)C(O)O[C@@H]3CO)O[C@@H]2CO)[C@H](O)[C@@H](O)[C@@H]1N[C@H]1C=C(CO)[C@@H](O)[C@H](O)[C@H]1O (stereo partly drawn) [acarbose, reference compound] | 59.37 | – | – | –
